Results on 19 compounds are retold here after patent US20120214847A1, “2-[1-PHENYL-5-HYDROXY-4a-SUBSTITUTED-HEXAHYDROCYCLOPENTA[F]INDAZOL-5-YL]ETHYL PHENYL DERIVATIVES AS GLUCOCORTICOID RECEPTOR LIGANDS” (Merck Sharp & Dohme Corp., priority 2009, published 2012).

The test deals with T1, human GR (Homo sapiens, UniProt P04150).
T1 construct: naturally expresses the human GR; endogenous in cells
T1 sequence (P04150 1-777): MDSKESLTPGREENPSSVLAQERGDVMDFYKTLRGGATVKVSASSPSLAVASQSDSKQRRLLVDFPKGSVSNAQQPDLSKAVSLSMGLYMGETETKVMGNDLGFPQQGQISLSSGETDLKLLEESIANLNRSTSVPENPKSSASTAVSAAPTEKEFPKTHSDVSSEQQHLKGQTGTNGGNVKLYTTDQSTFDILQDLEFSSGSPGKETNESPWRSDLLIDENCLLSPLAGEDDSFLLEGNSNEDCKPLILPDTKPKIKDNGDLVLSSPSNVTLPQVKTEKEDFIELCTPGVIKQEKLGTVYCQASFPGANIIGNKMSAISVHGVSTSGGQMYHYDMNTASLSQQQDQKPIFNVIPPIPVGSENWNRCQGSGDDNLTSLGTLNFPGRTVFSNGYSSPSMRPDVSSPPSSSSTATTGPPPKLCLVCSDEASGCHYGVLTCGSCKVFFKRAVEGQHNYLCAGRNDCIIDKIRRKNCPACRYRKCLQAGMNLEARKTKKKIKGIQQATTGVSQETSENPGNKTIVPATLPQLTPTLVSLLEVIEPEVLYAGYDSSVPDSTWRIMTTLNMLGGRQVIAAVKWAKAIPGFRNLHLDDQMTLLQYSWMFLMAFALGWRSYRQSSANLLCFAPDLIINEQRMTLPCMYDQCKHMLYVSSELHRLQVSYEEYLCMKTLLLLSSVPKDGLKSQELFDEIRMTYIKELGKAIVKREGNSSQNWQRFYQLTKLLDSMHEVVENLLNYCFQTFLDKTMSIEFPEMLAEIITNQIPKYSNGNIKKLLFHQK
Briefly: Transrepression assay (GITAR), TNFα-β-lactamase reporter in U937 cells. In kind it is cell-based. The following applies: for EC50: U937 cells, IP = inflection point; for Emax: U-937, U937 cells, activity repressed by 100 nM dexamethasone alone set as 100%. From the text:
Transrepression Assay (GITAR)
This assay assesses the ability of test compounds to control transcription from the TNFα-β-lactamase reporter gene in U937 cells, a human myelomonocytic leukemia cell line that naturally expresses the human GR. The assay measures compound dependent-repression of the TNFa promoter linked to a reporter gene.
The human U937 cells that had been stablely transfected with the TNF-a promoter driving ˜-lactamase are used for this assay. U937 cells contain an endogenous glucocorticoid receptor (GR). Cells are maintained in RPMI 1640 Growth medium (GibcoCat#11875-093) containing 25 mM HEPES, 10% FBS, 2 mM L-Glutamine, 1 mM Sodium pyruvate, 25 μg/ml Gentamicin (Gibed Cat#1571 0-064), 1:1000 2-Mercaptoethanol (Gibco Cat#21985-023) and 0.8 mg/ml G418 (Gibco Cat#10131-027). The density of the cells in the flask needs to be about 1×10^6-3×10^6/ml at the time of harvest. Usually, the cells are split to 1.2˜1.4×10^5/ml (1:10) 3 days prior to the assay. 50,000 cells/well are plated in 96 well black-walled plates the day of assay. Test compounds are added 10 J.lL/well, and cells are incubated at 37° C. for 30˜45 min. For assaying compounds, first dilute 1:10 in DMSO to make 1 mM, then further dilute 1:100 in medium to make 10× stock prior to adding to the cells. Add 50 ng/ml PMA (Sigma, cat#P8139) 10 μL/well to a final concentration 5 ng/ml, and 1 μg/ml LPS (Sigma, cat#L4130) 10 μL/well to a final concentration 100 ng/ml. Incubate cells at 370 C overnight for −18 hr. PMA is stored frozen as […] in DMSO. Dilute 1:10 in DMSO for a working stock of 10 μg/ml and store at −20° C. For assaying, dilute the 10 μg/ml working stock 1:200 in medium to make a 10× solution (50 ng/ml). Store frozen LPS at 1 mg/ml in PBS, dilute 1:1000 in medium to make 10×μg/ml) for the assay. Add 6× loading buffer (CCF2-AM) 20 μL/well, and incubate at room temperature for 70-90 min. […] The activity repressed by 100 nM dexamethasone alone is set as 100% activity.

The term EC50 denotes the concentration at which the effect is half-maximal. Usually Emax stands for the greatest response seen or fitted, relative to the assay's reference. Regarding `CC[C@]12Cc3cnn(-c4cccnc4)c3C=C1CC[C@@]2(O)CCc1ccccc1C#N` [Example 5, 2-{2-[(4aS,5R)-4a-Ethyl-5-hydroxy-1-(pyridin-3-yl)-1,4,4a,5,6,7-hexahydrocyclopenta[f]indazol-5-yl]ethyl}benzonitrile], the EC50 was found to be 31 nM and the Emax was found to be 80%.

The compound `CC[C@]12Cc3cnn(-c4ccc(F)cc4)c3C=C1CC[C@@]2(O)CCc1ccccc1S(C)(=O)=O` [Example 42, (4aS,5R)-4a-Ethyl-1-(4-fluorophenyl)-5-{2-[2-(methylsulfonyl)phenyl]ethyl}-1,4,4a,5,6,7-hexahydrocyclopenta[f]indazol-5-ol] showed an EC50 of 11 nM and an Emax of 89%.

With `OC(C[C@]1(O)CCC2=Cc3c(cnn3-c3ccc(F)cc3)C[C@@]21C1CC1)c1ccc(F)cn1` (single isomer, unassigned) [Example 79a], the EC50 came out at 167 nM and the Emax came to 41%.

Compound `CC[C@]12Cc3cnn(-c4ccc(F)cc4)c3C=C1CC[C@@]2(O)CCc1ccccc1S(=O)(=O)CC` [Example 51, (4aS,5R)-4a-Ethyl-5-{2-[2-(ethylsulfonyl)phenyl]ethyl}-1-(4-fluorophenyl)-1,4,4a,5,6,7-hexahydrocyclopenta[f]indazol-5-ol] returned an EC50 of 65 nM and an Emax of 83%.

In turn, `CC[C@]12Cc3cnn(-c4ccc(F)cc4)c3C=C1CC[C@@]2(O)CCc1ccc(F)cc1C(N)=O` [Example 8, 2-{2-[(4aS,5R)-4a-Ethyl-1-(4-fluorophenyl)-5-hydroxy-1,4,4a,5,6,7-hexahydrocyclopenta[f]indazol-5-yl]ethyl}-5-fluorobenzamide] had an EC50 of 90 nM and an Emax of 88%.

Compound `NC(=O)c1ccccc1CC[C@]1(O)CCC2=Cc3c(cnn3-c3ccccc3)C[C@@]21C1CC1` [Example 29, 2-{2-[(4aR,5R)-4a-Cyclopropyl-5-hydroxy-1-phenyl-1,4,4a,5,6,7-hexahydrocyclopenta[f]indazol-5-yl]ethyl}benzamide] displayed an EC50 of 47 nM and an Emax of 69%.

On to `COc1ccnc(CC[C@]2(O)CCC3=Cc4c(cnn4-c4ccc(F)cc4)C[C@@]32C2CC2)c1C(F)C(N)=O` (stereo partly drawn) [Example 66, 2-(2-{2-[(4aR,5R)-4a-Cyclopropyl-1-(4-fluorophenyl)-5-hydroxy-1,4,4a,5,6,7-hexahydrocyclopenta[f]indazol-5-yl]ethyl}-4-methoxypyridin-3-yl)-2-fluoroacetamide], for which the response was half-maximal at 12 nM (EC50) and the Emax was 76%.

Regarding `CC[C@]12Cc3cnn(-c4ccc(F)cc4)c3C=C1CC[C@@]2(O)CCc1cc(C(F)(F)F)ccn1` [Example 34, (4aS,5R)-4a-Ethyl-1-(4-fluorophenyl)-5-{2-[4-(trifluoromethyl)pyridin-2-yl]ethyl}-1,4,4a,5,6,7-hexahydrocyclopenta[f]indazol-5-ol], it took 125 nM to reach a half-maximal effect (EC50) and the maximal response (Emax) amounted to 85%.

In turn, `CC[C@]12Cc3cnn(-c4cccc(F)c4)c3C=C1CC[C@@]2(O)CCc1cccc(F)c1C(N)=O` [Example 12, 2-{2-[(4aS,5R)-4a-Ethyl-1-(3-fluorophenyl)-5-hydroxy-1,4,4a,5,6,7-hexahydrocyclopenta[f]indazol-5-yl]ethyl}-6-fluorobenzamide] gave an EC50 of 25 nM and an Emax of 87%.

As for `CC[C@]12Cc3cnn(-c4ccc(F)cc4)c3C=C1CC[C@@]2(O)CCc1ccccc1CCC(N)=O` [Example 22, 3-(2-{2-[(4aS,5R)-4a-Ethyl-1-(4-fluorophenyl)-5-hydroxy-1,4,4a,5,6,7-hexahydrocyclopenta[f]indazol-5-yl]ethyl}phenyl)propanamide], it took 148 nM to reach a half-maximal effect (EC50) and the Emax turned out to be 89%.

`CC[C@]12Cc3cnn(-c4ccccc4)c3C=C1CC[C@@]2(O)CCc1ccccc1C(N)=O` [Example 20, 2-{2-[(4aS,5R)-4a-Ethyl-5-hydroxy-1-phenyl-1,4,4a,5,6,7-hexahydrocyclopenta[f]indazol-5-yl]ethyl}benzamide] returned an EC50 of 28 nM and an Emax of 86%.

Consider `N#Cc1ccnc(CC[C@]2(O)CCC3=Cc4c(cnn4-c4ccc(F)cc4)C[C@@]32C2CC2)c1` [Example 35, 2-{2-[(4aR,5R)-4a-Cyclopropyl-1-(4-fluorophenyl)-5-hydroxy-1,4,4a,5,6,7-hexahydrocyclopenta[f]indazol-5-yl]ethyl}pyridine-4-carbonitrile], for which the response was half-maximal at 73 nM (EC50) and the Emax came out at 87%.

In turn, `COc1cccc(CC[C@]2(O)CCC3=Cc4c(cnn4-c4ccc(F)cc4)C[C@@]32C2CC2)c1C(N)=O` [Example 38, 2-{2-[(4aR,5R)-4a-Cyclopropyl-1-(4-fluorophenyl)-5-hydroxy-1,4,4a,5,6,7-hexahydrocyclopenta[f]indazol-5-yl]ethyl}-6-methoxybenzamide] came in with an EC50 of 11 nM and an Emax of 74%.

`CC[C@]12Cc3cnn(-c4cccnc4)c3C=C1CC[C@@]2(O)CCc1cccc(F)c1C#N` [Example 10, 2-{2-[(4aS,5R)-4a-Ethyl-5-hydroxy-1-(pyridin-3-yl)-1,4,4a,5,6,7-hexahydrocyclopenta[f]indazol-5-yl]ethyl}-6-fluorobenzonitrile] yielded an EC50 of 113 nM and an Emax of 64%.

With `CC[C@]12Cc3cnn(-c4ccc(F)cc4)c3C=C1CC[C@@]2(O)CC(O)c1cc(C#N)ccn1` (stereo partly drawn) [Example 72, 2-{2-[(4aS,5R)-4a-Ethyl-1-(4-fluorophenyl)-5-hydroxy-1,4,4a,5,6,7-hexahydrocyclopenta[f]indazol-5-yl]-1-hydroxyethyl}pyridine-4-carbonitrile], the EC50 worked out at 228 nM and the Emax is 51%.

Compound `CC[C@]12Cc3cnn(-c4ccc(F)cc4)c3C=C1CC[C@@]2(O)CC(O)c1ccccn1` (stereo partly drawn) [Example 68, (4aS,5R)-4a-Ethyl-1-(4-fluorophenyl)-5-[2-hydroxy-2-(pyridin-2-yl)ethyl]-1,4,4a,5,6,7-hexahydrocyclopenta[f]indazol-5-ol] returned an EC50 of 18 nM and an Emax of 71%.

Compound `N#Cc1cccnc1CC[C@]1(O)CCC2=Cc3c(cnn3-c3ccc(F)cc3)C[C@@]21C1CC1` [Example 31, 2-{2-[(4aR,5R)-4a-Cyclopropyl-1-(4-fluorophenyl)-5-hydroxy-1,4,4a,5,6,7-hexahydrocyclopenta[f]indazol-5-yl]ethyl}pyridine-3-carbonitrile] returned an EC50 of 13 nM and an Emax of 89%.

In the case of `CC[C@]12Cc3cnn(-c4ccc(F)cc4)c3C=C1CC[C@@]2(O)CCc1ccccc1S(=O)(=O)C(C)C` [Example 40, (4aS,5R)-4a-Ethyl-1-(4-fluorophenyl)-5-{2-[2-(propan-2-ylsulfonyl)phenyl]ethyl}-1,4,4a,5,6,7-hexahydrocyclopenta[f]indazol-5-ol], the EC50 is 38 nM and the Emax was determined as 83%.

In turn, `CC[C@]12Cc3cnn(-c4ccc(F)cc4)c3C=C1CC[C@@]2(O)CCc1cccc(OC)c1C(N)=O` [Example 37, 2-{2-[(4aS,5R)-4a-Ethyl-1-(4-fluorophenyl)-5-hydroxy-1,4,4a,5,6,7-hexahydrocyclopenta[f]indazol-5-yl]ethyl}-6-methoxybenzamide] came in with an EC50 of 8 nM and an Emax of 90%.
